This note sets out measurements from ChEMBL document CHEMBL4177635, “Discovery and structure-activity-relationship study of novel conformationally restricted indane analogues for mutant isocitric dehydrogenase 1 (IDH1) inhibitors” (Bioorg Med Chem Lett, 2017).

Data set [1] addresses Isocitrate dehydrogenase [NADP] cytoplasmic (Homo sapiens, UniProt O75874, R132H). Put plainly: Inhibition of IDH1 R132H mutant (unknown origin) using alpha-ketoglutarate as substrate after 60 mins by resazurin dye based fluorescence assay.
The target in data set [2] is Isocitrate dehydrogenase [NADP] cytoplasmic (Homo sapiens, UniProt O75874, R132C). Put plainly: Inhibition of IDH1 R132C mutant in human HT1080 cells assessed as reduction in 2-hydroxyglutarate production after 48 hrs by LC-MS/MS analysis. The class given is cell-based.
Sequence of Isocitrate dehydrogenase [NADP] cytoplasmic (Homo sapiens, UniProt O75874, R132C) (O75874 2-414 R132C limits assumed): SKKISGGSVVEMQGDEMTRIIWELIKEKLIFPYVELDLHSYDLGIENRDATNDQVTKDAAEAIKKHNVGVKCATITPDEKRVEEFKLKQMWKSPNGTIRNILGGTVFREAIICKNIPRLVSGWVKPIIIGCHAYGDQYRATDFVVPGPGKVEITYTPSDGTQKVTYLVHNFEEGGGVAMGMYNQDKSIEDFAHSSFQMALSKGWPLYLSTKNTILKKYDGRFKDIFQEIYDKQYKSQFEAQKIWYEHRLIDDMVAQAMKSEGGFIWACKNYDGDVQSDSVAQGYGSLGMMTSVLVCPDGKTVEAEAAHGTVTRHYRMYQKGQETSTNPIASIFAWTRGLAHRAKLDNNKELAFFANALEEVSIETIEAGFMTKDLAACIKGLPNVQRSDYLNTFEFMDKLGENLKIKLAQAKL
Data set [3] is described as follows: Intrinsic clearance in mouse liver microsomes assessed per g protein at 1 uM by LC-MS/MS analysis. It counts as ADME, microsome.
Data set [4] can be described thus: Intrinsic clearance in rat liver microsomes assessed per g protein at 1 uM by LC-MS/MS analysis. The class given is ADME, microsome.
In data set [5] the target is Isocitrate dehydrogenase [NADP] cytoplasmic (Homo sapiens, UniProt O75874). Put plainly: Inhibition of IDH1 (unknown origin) using isocitrate as substrate after 60 mins by resazurin dye based fluorescence assay.
Sequence of Isocitrate dehydrogenase [NADP] cytoplasmic (Homo sapiens, UniProt O75874) (O75874 whole entry): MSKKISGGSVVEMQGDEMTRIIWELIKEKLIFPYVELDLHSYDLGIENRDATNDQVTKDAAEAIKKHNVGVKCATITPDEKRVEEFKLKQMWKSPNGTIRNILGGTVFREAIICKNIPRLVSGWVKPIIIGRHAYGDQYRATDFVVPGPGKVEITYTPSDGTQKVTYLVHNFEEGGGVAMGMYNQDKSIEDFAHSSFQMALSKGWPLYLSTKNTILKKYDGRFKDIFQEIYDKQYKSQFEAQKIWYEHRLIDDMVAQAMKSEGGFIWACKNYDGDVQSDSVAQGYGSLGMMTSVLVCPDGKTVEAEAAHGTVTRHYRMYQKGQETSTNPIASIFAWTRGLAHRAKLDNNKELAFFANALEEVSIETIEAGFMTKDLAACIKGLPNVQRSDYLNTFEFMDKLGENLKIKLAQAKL
The target in data set [6] is Isocitrate dehydrogenase [NADP], mitochondrial (Homo sapiens, UniProt P48735, R140Q). Put plainly: Inhibition of IDH2 R140Q mutant (unknown origin) using alpha-ketoglutarate as substrate pretreated for 60 mins followed by substrate addition measured after 60 mins by resazurin dye based fluorescence assay.
Sequence of Isocitrate dehydrogenase [NADP], mitochondrial (P48735 40-452 R140Q limits assumed): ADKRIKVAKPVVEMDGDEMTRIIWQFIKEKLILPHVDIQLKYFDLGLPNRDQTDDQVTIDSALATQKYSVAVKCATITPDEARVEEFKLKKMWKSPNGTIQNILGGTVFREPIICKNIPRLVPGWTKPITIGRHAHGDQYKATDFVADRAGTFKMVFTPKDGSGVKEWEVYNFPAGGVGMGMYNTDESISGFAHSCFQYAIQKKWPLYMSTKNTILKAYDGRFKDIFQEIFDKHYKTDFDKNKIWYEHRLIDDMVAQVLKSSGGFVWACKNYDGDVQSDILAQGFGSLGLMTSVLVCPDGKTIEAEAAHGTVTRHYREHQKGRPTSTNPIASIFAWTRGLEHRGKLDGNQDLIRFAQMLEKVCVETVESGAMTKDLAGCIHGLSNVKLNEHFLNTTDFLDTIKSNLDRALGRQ
The species named for data set [7] is Homo sapiens. Put plainly: Selectivity ratio of IC50 for IDH1 (unknown origin) to IC50 for […] (unknown origin).
Data set [8] is filed under the species Homo sapiens. Put plainly: Selectivity ratio of IC50 for IDH2 R140Q mutant (unknown origin) to IC50 for IDH2 R140Q mutant (unknown origin).
A short description of data set [9]: Clearance in ICR mouse at 1 mg/kg, iv by HPLC-MS analysis. The settings on record: in vivo. The class given is ADME, organism-based.
Data set [10] can be described thus: Volume of distribution at steady state in ICR mouse at 1 mg/kg, iv or 5 mg/kg, po by HPLC-MS analysis. It counts as ADME, organism-based. The conditions noted are these: in vivo, read-out: Vdss.
The test system of data set [11] is Mus musculus. Put plainly: AUC in ICR mouse at 1 mg/kg, iv by HPLC-MS analysis. It counts as ADME, organism-based. The settings on record: in vivo.
Data set [12] has as its system Mus musculus. Put plainly: AUC in ICR mouse at 5 mg/kg, po by HPLC-MS analysis. The settings on record: in vivo. It counts as ADME, organism-based.
Data set [13] concerns Mus musculus. Put plainly: Oral bioavailability in ICR mouse at 5 mg/kg by HPLC-MS analysis. It counts as ADME, organism-based. The settings on record: in vivo.

Sequence of Isocitrate dehydrogenase [NADP] cytoplasmic (Homo sapiens, UniProt O75874, R132H) (O75874 2-414 R132H limits assumed): as the sequence (O75874 2-414 R132C limits assumed) above, with C131H counted along it

In data set [1], `N#Cc1ccnc(N2C(=O)CC[C@@H]2C(=O)N(c2cccc(F)c2)[C@@]2(C(=O)NC3CC(F)(F)C3)CCc3ccccc32)c1` showed an IC50 of more than 10 µM.
Regarding `N#Cc1ccnc(N2C(=O)CC[C@H]2C(=O)N(c2cccc(F)c2)[C@@]2(C(=O)NC3CCCCC3)CCc3ccccc32)c1`, the results for the concentration for half-maximal inhibition (IC50) in data set [1] and in data set [2] were 0.037 µM and less than 0.01 µM, respectively. Also, the CLH in data set [3] is 2359 mL/min; in data set [4] it was 1145 mL/min.
In the case of `N#Cc1ccnc(N2C(=O)CC[C@H]2C(=O)N(c2cccc(F)c2)[C@@]2(C(=O)NC3CC(F)(F)C3)CCc3cc(Cl)ccc32)c1`, the IC50 in data set [1] was 0.049 µM; in data set [2], 0.0075 µM; in [5] it was 1.78 µM; in data set [6], more than 0.1 µM. In addition, the Ratio IC50 is 36 in the data set listed under Homo sapiens [7] and more than 2040 in the data set filed under Homo sapiens [8]. Also, the clearance in data set [9] is 20 mL/min/kg. Besides, the Vd in data set [10] was 1.9 L. Moreover, the AUC in the data set on Mus musculus [11] came out at 834 ng·h/mL; with Mus musculus [12] it was 3780 ng·h/mL. In addition, the F in the data set with Mus musculus [13] came to 38%.
For `N#Cc1ccnc(N2C(=O)CC[C@H]2C(=O)N(c2cccc(F)c2)[C@@]2(C(=O)NC3CC(F)(F)C3)CCc3c(Cl)cccc32)c1`, the half-inhibitory concentration (IC50) in [1] worked out at 0.067 µM; in [2], 0.021 µM.
The matching figures for `N#Cc1ccnc(N2C(=O)CC[C@H]2C(=O)N(c2cc(F)cc(F)c2)[C@@]2(C(=O)NC3CC(F)(F)C3)CCc3ccccc32)n1`: 0.022 µM and 0.0149 µM.
As for `N#Cc1ccnc(N2C(=O)CC[C@H]2C(=O)N(c2cc(F)cc(Cl)c2)[C@@]2(C(=O)NC3CC(F)(F)C3)CCc3ccccc32)c1`, in [1], the IC50 was determined as 0.172 µM.
`N#Cc1ccnc(N2C(=O)CC[C@H]2C(=O)N(c2cccc(F)c2)[C@@]2(C(=O)NC3CC(F)(F)C3)CCc3c(F)cccc32)c1`: the IC50 turned out to be 0.068 µM in data set [1] and 0.027 µM in data set [2].
The corresponding values for `N#Cc1ccnc(N2C(=O)OC[C@H]2C(=O)N(c2cccc(F)c2)[C@@]2(C(=O)NC3CC(F)(F)C3)CCc3cccc(Cl)c32)n1` are 0.0056 µM and 0.029 µM.
For the compound `N#Cc1ccnc(N2C(=O)CC[C@H]2C(=O)N(c2cccc(F)c2)[C@@]2(C(=O)NC3CC(F)(F)C3)CCc3cccc(F)c32)c1`, the values for the IC50 in data set [1] and in [2] were 0.051 µM and 0.052 µM, respectively.
In turn, `N#Cc1ccnc(N2C(=O)CC[C@H]2C(=O)N(c2ccc(Cl)c(F)c2)[C@@]2(C(=O)NC3CC(F)(F)C3)CCc3ccccc32)c1` yielded an IC50 in data set [1] of 0.186 µM.
`N#Cc1ccnc(N2C(=O)CC[C@H]2C(=O)N(c2ccc(F)c(F)c2)[C@@]2(C(=O)NC3CC(F)(F)C3)CCc3ccccc32)c1` had an IC50 in data set [1] of 0.095 µM.
Compound `N#Cc1ccnc(N2C(=O)CC[C@H]2C(=O)N(c2cccc(F)c2F)[C@@]2(C(=O)NC3CC(F)(F)C3)CCc3ccccc32)c1` had an IC50 in [1] of 0.148 µM.
The compound `N#Cc1ccnc(N2C(=O)CC[C@H]2C(=O)N(c2cccc(F)c2)[C@@]2(C(=O)NCC3CC3)CCc3ccccc32)c1` had an IC50 in data set [1] of 0.266 µM.
On the same count and under the same terms, in the case of `N#Cc1ccnc(N2CCC[C@H]2C(=O)N(c2cccc(F)c2)[C@@]2(C(=O)NC3CC(F)(F)C3)CCc3ccccc32)c1` it was 0.635 µM.
Still for that read-out and setting: under `N#Cc1ccnc(N2C(=O)CC[C@H]2C(=O)N(c2cccc(F)c2)[C@@]2(C(=O)NC3CCOCC3)CCc3ccccc32)c1` stands more than 1 µM; under `N#Cc1cccc(N2C(=O)CC[C@H]2C(=O)N(c2cc(F)cc(F)c2)[C@@]2(C(=O)NC3CC(F)(F)C3)CCc3ccccc32)c1`, 2.61 µM; under `COc1ccnc(N2C(=O)CC[C@H]2C(=O)N(c2cc(F)cc(F)c2)[C@@]2(C(=O)NC3CC(F)(F)C3)CCc3ccccc32)c1`, more than 10 µM.
On the same count and under the same terms, under `O=C1CC[C@@H](C(=O)N(c2cc(F)cc(F)c2)[C@@]2(C(=O)NC3CC(F)(F)C3)CCc3ccccc32)N1c1ccccn1` stands more than 10 µM.
Consider `N#Cc1ccnc(N2C(=O)OC[C@H]2C(=O)N(c2cc(F)cc(F)c2)[C@@]2(C(=O)NC3CC(F)(F)C3)CCc3ccccc32)n1`, for which the IC50 in [1] worked out at 0.04 µM; in data set [2], 0.308 µM.
On to `N#Cc1ccnc(N2C(=O)OC[C@H]2C(=O)N(c2cccc(F)c2)[C@@]2(C(=O)NC3CC(F)(F)C3)CCc3ccccc32)c1`, for which the IC50 was 0.058 µM in data set [1] and 0.019 µM in data set [2].
As to `N#Cc1ccnc(N2C(=O)CC[C@H]2C(=O)N(c2cc(F)cc(F)c2)[C@@]2(C(=O)NC3CC(F)(F)C3)CCc3ccccc32)c1`, the IC50 is 0.045 µM in [1], 0.005 µM in [2], 3.56 µM in data set [5] and more than 0.1 µM in [6]. The results for the Ratio IC50 in the data set filed under Homo sapiens [7] and in the data set filed under Homo sapiens [8] were 79 and more than 2200, respectively. This compound showed a clearance in data set [9] of 8.33 mL/min/kg. Further, in [10], the Vd is 1 L. In addition, the exposure (AUC) was found to be 1984 ng·h/mL with Mus musculus [11] and 3620 ng·h/mL in the data set on Mus musculus [12]. This compound gave a F in the data set on Mus musculus [13] of 87%.
For `N#Cc1ccnc(N2C(=O)CC[C@H]2C(=O)N(c2cc(F)cc(F)c2)[C@@]2(C(=O)NC3CC(F)(F)C3)CCc3c(Cl)cccc32)c1`, the IC50 was found to be 0.053 µM in [1] and 0.014 µM in [2].
For `N#Cc1ccnc(N2C(=O)CC[C@H]2C(=O)N(c2cc(F)ccc2F)[C@@]2(C(=O)NC3CC(F)(F)C3)CCc3ccccc32)c1`, the IC50 in data set [1] is 0.338 µM.
Turning to `N#Cc1ccnc(N2C(=O)CC[C@H]2C(=O)N(c2cccc(F)c2)[C@@]2(C(=O)NC3CC(F)(F)C3)CCc3cccc(Cl)c32)n1`, the IC50 in [1] stood at 0.022 µM; in data set [2], 0.042 µM.
For the compound `N#Cc1ccnc(N2C(=O)CC[C@H]2C(=O)N(c2cc(F)cc(F)c2)[C@@]2(C(=O)NC3CC(F)(F)C3)CCc3cccc(Cl)c32)c1`, the IC50 in data set [1] was found to be 0.18 µM.
Same read-out and setting: in the case of `N#Cc1ccnc(N2C(=O)CC[C@H]2C(=O)N(c2cncc(F)c2)[C@@]2(C(=O)NC3CC(F)(F)C3)Cc3ccccc32)c1` it was 0.27 µM.
Take `N#Cc1ccnc(N2C(=O)OC[C@H]2C(=O)N(c2cccc(F)c2)[C@@]2(C(=O)NC3CC(F)(F)C3)CCc3cccc(Cl)c32)c1`: the IC50 is 0.042 µM in data set [1] and 0.009 µM in [2].
On to `N#Cc1ccnc(N2C(=O)CC[C@H]2C(=O)N(c2cccc(Cl)c2)[C@@]2(C(=O)NC3CC(F)(F)C3)CCc3ccccc32)c1`, for which 0.255 µM corresponded to half-maximal inhibition in data set [1] (IC50).
As to `N#Cc1ccnc(N2C(=O)OC[C@H]2C(=O)N(c2cc(F)cc(F)c2)[C@@]2(C(=O)NC3CC(F)(F)C3)CCc3ccccc32)c1`, the IC50 stood at 0.054 µM in [1] and 0.0089 µM in [2].
The compound `CS(=O)(=O)c1ccnc(N2C(=O)CC[C@H]2C(=O)N(c2cc(F)cc(F)c2)[C@@]2(C(=O)NC3CC(F)(F)C3)CCc3ccccc32)c1` displayed a half-inhibitory concentration (IC50) in [1] of 2.96 µM.
On the same count and under the same terms, in the case of `N#Cc1ccnc(N2C(=O)CC[C@H]2C(=O)N(c2cncc(F)c2)[C@@]2(C(=O)NC3CC(F)(F)C3)CCCc3ccccc32)c1` it was 0.275 µM; in that of `N#Cc1ccnc(N2C(=O)CC[C@H]2C(=O)N(c2cccc(F)c2)[C@@]2(C(=O)Nc3ccccc3)CCc3ccccc32)c1`, more than 1 µM; in that of `N#Cc1ccnc(N2C(=O)CC[C@H]2C(=O)N(c2ccccc2)[C@@]2(C(=O)NC3CC(F)(F)C3)CCc3ccccc32)c1`, 0.26 µM.
As for `N#Cc1ccnc(N2C(=O)CC[C@H]2C(=O)N(c2cccc(F)c2)[C@@]2(C(=O)NC3CC(F)(F)C3)CCc3cc(F)ccc32)c1`, 0.108 µM corresponded to half-maximal inhibition in data set [1] (IC50).
Take `N#Cc1ccnc(N2C(=O)CC[C@H]2C(=O)N(c2cccc(F)c2)[C@@]2(C(=O)NCC3CCC(F)(F)CC3)CCc3ccccc32)c1`: the IC50 in data set [1] amounted to 0.08 µM; in data set [2], 0.015 µM. Moreover, the CLH in data set [3] came out at 567 mL/min; in data set [4], 24 mL/min.
In the case of `O=C1CC[C@@H](C(=O)N(c2cc(F)cc(F)c2)[C@@]2(C(=O)NC3CC(F)(F)C3)CCc3ccccc32)N1c1cnccn1`, 0.128 µM corresponded to half-maximal inhibition in data set [1] (IC50).
As to `N#Cc1ccnc(N2C(=O)CC[C@H]2C(=O)N(c2cncc(F)c2)[C@@]2(C(=O)NC3CC(F)(F)C3)CCc3ccccc32)c1`, the IC50 was 0.094 µM in [1] and 0.021 µM in data set [2].
As for `N#Cc1ccnc(N2C(=O)CC[C@H]2C(=O)N(c2cccc(F)c2)[C@@]2(C(=O)NC3CC(F)(F)C3)CCc3ccc(F)cc32)c1`, the IC50 in data set [1] was determined as 0.138 µM.
For `N#Cc1ccnc(N2C(=O)CC[C@H]2C(=O)N(c2cccc(F)c2)[C@@]2(C(=O)NC3CC(F)(F)C3)CCc3ccccc32)c1`, the results for the IC50 in data set [1] and in data set [2] were 0.085 µM and 0.025 µM, respectively. Besides, the values for the CLH in data set [3] and in data set [4] were 54.1 mL/min and 3.7 mL/min, respectively.
